Literature values, collected in patent publication US12440482B2, “1,4-dihydropyridine compositions, methods of making and use” (American Regent, Inc., priority 2019, dated 2025).

solubility in water: only slightly soluble
Compound: COC(=O)C1=C(C)NC(C)=C(C(=O)OCCN(C)Cc2ccccc2)C1c1cccc([N+](=O)[O-])c1 (stereo not shown) [nicardipine]
